Experimental data published in patent US20240409647A1, “BISPECIFIC BINDING PROTEINS AGAINST ALARMINS AND USES THEREOF” (SINOMAB BIOSCIENCE LIMITED, priority 2022, published 2024).
pKd: −log10 of the molar value. Values joined by “and” are separate entries in the source; they are usually repeats but may differ in a detail not shown here. Equal entries are not always repeated.

What was measured:
IL-33 = molecular target: T1, IL-33 (Homo sapiens, UniProt O95760); assay: Bio-Layer Interferometry (Octet), binding kinetics of bsBp to human IL-33
T1 construct: purchased R&D systems
T1 sequence (O95760 95-270): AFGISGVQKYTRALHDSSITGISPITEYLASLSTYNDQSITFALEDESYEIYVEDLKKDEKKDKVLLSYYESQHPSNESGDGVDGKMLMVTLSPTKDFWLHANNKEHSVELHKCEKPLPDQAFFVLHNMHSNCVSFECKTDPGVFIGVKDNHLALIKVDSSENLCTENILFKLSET
Procedure: The binding affinity of bsBp to the targeted alarmins was determined using a bio-Layer Interferometry analysis (Octet ReD96 system, Sartorius). bsBp or SM17 (20 μg/mL) was immobilized on biosensors via binding to anti-human Fab CH1 region; serially diluted human IL33 and TSLP (158.7 nM, 79.4 nM, 39.7 nM) (R&D systems) were added to plot the association and dissociation curve according to the manufacturer's specification. Biosensors immobilized with irrelevant antibody (SM03, anti-human CD22 chimeric IgG1 antibody, SinoMab BioScience Limited, 20 μg/mL) were used as control reference.

[1] = test system: OVA-induced murine experimental asthma; assay: Ovalbumin induced asthma on mice; format: in vivo, BALB/c mice
Procedure: Female BALB/c mice were induced with ovalbumin to elicit asthma like symptoms on mice. Briefly, mice were each sensitized with […] of ovalbumin (OVA) emulsified in 1 mg of aluminum hydroxide in a total volume of […] via intraperitoneal (IP) injections on Days 0 and 12. Mice were divided into 6 groups with 8 mice per group. Sensitized mice were exposed to aerosolized 5% OVA in sterile water, 20 minutes/day for six consecutive days (Days 19, 20, 21, 22, 23 and 24). Naïve mice inhaled the atomized water, 20 minutes/day, for six consecutive days. Mice were then i.v. injected with different concentrations of SM17, PBS (control), or dexamethasone (Dex) 4 hours before aerosol challenge, once per day (Day 19 to 24).
On day 25 (24 hours after the last OVA challenge), mice were anesthetized with Telazol® (20-40 mg/kg i.p.) and connected to a computer-controlled ventilator via the tracheal cannula. The time of expiration/inspiration and the respiratory rate were preset at 1.5:1 and 90/min, respectively. After a steady baseline was established, the resistance of the lung (RL) was recorded to evaluate the reaction of mice to a methacholine chloride gradient (0.025 and 0.05 mg/kg body weight); the methacholine chloride was injected into the vena jugulars externa at 5-min intervals via a fine needle. […] BALF from mice sacrificed on Day 25 was retrieved, and inflammatory cell number and the concentrations of inflammatory cytokine from BALF were determined.
Results are presented as means±SEM. One Way ANOVA, Dunnett's Multiple Comparison Test, *: P<0.05; **: P<0.01. Dex=Dexamethasone.

IL-17RB = molecular target: T2, IL-17RB (Homo sapiens, UniProt Q9NRM6); assay: Bio-Layer Interferometry (Octet), SM17 binding kinetics to human IL17RB; settings: trials 1 and 2
T2 construct: purchased R&D systems
T2 sequence (Q9NRM6 18-502): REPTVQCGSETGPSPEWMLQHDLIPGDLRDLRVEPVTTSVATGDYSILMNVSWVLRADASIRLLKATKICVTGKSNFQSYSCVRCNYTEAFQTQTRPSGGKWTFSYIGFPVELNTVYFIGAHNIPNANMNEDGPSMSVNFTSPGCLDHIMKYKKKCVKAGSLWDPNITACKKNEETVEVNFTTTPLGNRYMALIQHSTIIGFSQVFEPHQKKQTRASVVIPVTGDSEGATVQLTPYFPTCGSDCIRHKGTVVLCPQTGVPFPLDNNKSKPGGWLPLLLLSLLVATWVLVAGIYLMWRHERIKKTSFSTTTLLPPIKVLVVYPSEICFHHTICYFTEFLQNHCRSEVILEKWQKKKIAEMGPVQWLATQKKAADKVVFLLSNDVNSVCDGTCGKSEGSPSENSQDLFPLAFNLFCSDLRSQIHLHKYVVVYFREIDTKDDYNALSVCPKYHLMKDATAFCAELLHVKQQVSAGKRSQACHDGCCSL
Procedure: Bio-Layer Interferometry analysis (Octet ReD96 system, Sartorius) was employed to determine the binding affinity of SM17 against human and cynomolgus monkey IL17RB protein (R&D systems). Briefly, SM17 (20 μg/mL) was immobilized on biosensors via interactions with anti-human Fab CH1; serially diluted Cyno-IL17RB and Human-IL17RB (at a concentration of 158.7 nM, 79.4 nM and 39.7 nM, respectively) were subsequently added following standard operation protocols of the Octet ReD96 system to plot out the association and dissociation curve. Irrelevant antibody (SM03, anti-human CD22 chimeric IgG1 antibody, SinoMab BioScience Limited) was used as the control reference. Of note, the KD is within picomolar-single digit nanomolar range.

[2] = molecular target: T3, human IL17RB expressed on HEK293 cells (Homo sapiens, UniProt Q9NRM6); assay: Flow cytometry, SM17 binding to HEK293 transfected with human IL-17RB; settings: SM17 1 μg/ml
T3 construct: transfected either with full-length human or rhesus monkey IL-17RB (SinoBiological, Beijing, China); host or cells: HEK293
T3 sequence (Q9NRM6 18-502): T2 sequence (Q9NRM6 18-502)
Procedure: HEK293 cells (ATCC, Manassas, VA) transfected either with full-length human or rhesus monkey IL-17RB (SinoBiological, Beijing, China) were examined for binding to SM17 following standard protocol for flow cytometry. Wild-type HEK293 stained with IgG4 isotype control (Sino Biological) was used as the negative control and for gating purpose. Briefly, HEK293 cells at a density of 3×10^5 cells were seeded into each well of a 6-well plate. On the next day, human or rhesus Il-17RB full length cDNA were first cloned into pCMV3-untagged expression plasmid through standard molecular cloning technique, and then expression plasmids for human or rhesus IL-17RB were transfected into HEK293 cells by lipofection (Lipofectamine 3000 reagent; Thermo Fisher Scientific). Transfected cells were trypsinized, harvested, and fixed with 4% paraformaldehyde (5 minutes). SM17, or human IgG4 control at 1 μg/ml in washing buffer (3% BSA in PBS) were added to the resuspend cells for incubation at RT for 30 min before Alexa Fluor® 647-conjugated goat anti-human IgG specific antibody (1:2000 dilution in washing buffer) (Jackson ImmunoResearch) was added for flow cytometry analysis using the BD FACSVerse cell analyzer (Becton Dickenson, Franklin Lakes, NJ).

SM17: humanized anti-IL17RB monoclonal antibody, human IgG4 isotype; HC SEQ ID NO: 32, LC SEQ ID NO: 33
pKd (IL-33): 3.18
Kdis (IL-33): 17.9 s⁻¹
Ka (IL-33; bsBp or SM17 immobilized at 20 μg/mL): 27200 M⁻¹ s⁻¹
airway hyperresponsiveness (in words) ([1]; 1 mg/kg or 3 mg/kg SM17 before each OVA aerosolization): mild but not significant abrogation in AHR
airway hyperresponsiveness (in words) ([1]; 5 mg/kg SM17 i.v. once per day, Day 19 to 24, methacholine challenge day 25): prevented airway hyperresponsiveness
number of pulmonary infiltrated eosinophils (in words) ([1]; SM17 at 5 mg/kg): significantly reduce the number of pulmonary infiltrated eosinophils
IL-13 levels in BALF (in words) ([1]; SM17 at 5 mg/kg, Day 25): significantly reduced the IL-13 levels
eosinophil number in BALF (in words) ([1]; SM17 at 5 mg/kg, Day 25): significantly reduced
IL-5 levels in BALF (in words) ([1]; SM17 at 1, 3 and 5 mg/kg, Day 25): significantly reduced the IL-5 levels in BALF
Ka (IL-17RB): 222000 M⁻¹ s⁻¹ and 183000 M⁻¹ s⁻¹
binding of SM17 to hIL17RB-HEK293 [2]: 46%
